Peptide text beside a SMILES is read from it.

Experiment [1] has as its system CHO-K1 cells (7WD10 cells) that stably expressed APP protein. Kind of experiment: Aβ protein production inhibition experiment in 7WD10 cells (sAPPβ, βCTF, Aβ). The experiment is classed as cell-based. The following applies: polypeptide 1, 5, 10, 20, and 50 μM. The procedure: An experiment was conducted wherein #1, #2, and #4 polypeptides were reacted with CHO-K1 cells (7WD10 cells) that stably expressed APP protein and transiently expressed Notch to confirm the production of Aβ protein and cleavage of Notch protein.

The test system of experiment [2] is Aβ protein in hippocampus. As to the kind of experiment: Aβ protein production inhibition after direct administration in mouse hippocampus. The experiment is classed as in vivo. The following applies: C57BL/6 mouse, 0.2 ng/g directly in right-side hippocampus, three hours after administration, relative to rev#4. The procedure: A #4 polypeptide solution using 50% DMSO as a solvent was administered to a C57BL/6 mouse in an amount of 0.2 ng/g. The solution was directly administered in the right-side hippocampus of the mouse. Three hours after administration, the right-side hippocampus was extracted, and the amount of Aβ protein extracted by TBS and 6M guanidine hydrochloride was measured by using the sandwich ELISA method (product name: human/rat β amyloid (40) ELISA Kit Wako for immunochemistry, product No. 294-62501; product name: human/rat β amyloid (42) ELISA Kit Wako for immunochemistry, product No. 290-62501: both manufactured by Wako Pure Chemical Industries, Ltd.). As a negative control experiment, a polypeptide (rev#4: SEQ ID NO: 19) having the amino acid sequence in inverse order of #4 polypeptide was administered to the left-side hippocampus of the same mouse.
FIG. 9 is a graph showing the Aβ protein extracted from the mouse was quantified. The vertical axis indicates the relative value taking the result of negative control experiment in which rev#4 polypeptide was administered as 100%.

Experiment [3] concerns the target γ-secretase against βCTF (C99-FLAG) (Homo sapiens, UniProt P05067). As to the kind of experiment: γ-Secretase activity inhibition experiment in vitro, C99-FLAG substrate. The experiment is classed as biochemical. The following applies: polypeptide 50 μM, 4 hours, 37° C., Western blotting. The procedure: A polypeptide having βCTF (C99-FLAG: SEQ ID NO: 16) and mouse-derived Notch protein having a FLAG peptide at the C-terminal side (modification of NCBI Accession No. Q01705.2; SEQ ID NO: 17; hereunder referred to as “Notch”) shown in FIG. 2(A) were each made into a solution having a final concentration of 50 nM.
To these solutions, 9-7 polypeptide, 6-5 polypeptide, #1 polypeptide, #2 polypeptide, #3 polypeptide, and #4 polypeptide were added in such a manner that the final concentrations were 50 μM, followed by reacting with 50 μL of CHAPSO-solubilized membrane fraction (γ-secretase-containing fraction) for 4 hours. The reaction temperature was 37° C. As a negative control experiment, DMSO was used in place of the six types of polypeptides described above.
Each sample after completion of the reaction was measured in the following manner. As shown in FIG. 2(A), a sample using C99-FLAG was subjected to Western blotting using a monoclonal antibody (82E-1) that specifically recognizes the N terminal of C99-FLAG, and the amount of Aβ40 protein produced by the cleavarage by γ-secretase was measured. In contrast, the reaction sample using Notch-FLAG was subjected to Western blotting using an anti-FLAG monoclonal antibody, and the amount of NICD produced to the separete by γ-secretase was also measured. FIG. 2(B) and FIG. 2(C) show the results.
An experiment was conducted in the same manner as in Experimental Example 1 described above, except that only #1 polypeptide was used and the amount of #1 polypeptide was selected so that the final concentrations were 0.5, 1, 5, 10, 20, and 50 μM.
An experiment was conducted in the same manner as in Experimental Example 1 described above, except that S4 polypeptide was used as the polypeptide, and each addition amount was set in such a manner that the final concentrations were 1, 5, 10, 20, and 50 μM. In this Experimental Example, #4 polypeptide was added in such a manner that the final result was 50 μM.
A general note: In western blotting, separated proteins are transferred to a membrane and probed.

Experiment [4] addresses β-secretase against APP (APP-EQ-FLAG) (Homo sapiens, UniProt P05067). Kind of experiment: β-Secretase activity inhibition experiment in vitro, APP-EQ-FLAG substrate. The experiment is classed as biochemical. The procedure:
A solution containing the polypeptide having APP (APP-EQ-FLAG: SEQ ID NO: 18) as shown in FIG. 5(A) was prepared in such a manner that its final concentration was 50 nM.
To this solution, 9-7 polypeptide, 6-5 polypeptide, #1 polypeptide, #2 polypeptide, #3 polypeptide, #4 polypeptide, #5 polypeptide, #6 polypeptide, #7 polypeptide, #8 polypeptide, #9 polypeptide, and #10 polypeptide were added in such a manner that each solution had the final concentration of 50 μM, followed by reacting with 50 μL β-secretase (0.02 U/μL) for 4 hours. The reaction temperature was 37° C. As a negative control experiment, DMSO was used in place of the 12 types of polypeptides mentioned above.
After completion of the reaction, each sample was subjected to Western blotting using a monoclonal antibody (82E-1) that specifically recognizes the N terminal of APP-EQ-FLAG as shown in FIG. 5(A). Thereafter, the amount of Aβ33-FLAG protein separated by β-secretase was measured.
An experiment was conducted in the same manner as Experimental Example 4 described above except that S4 and #4 polypeptides were used as the polypeptide and the amounts of these polypeptides added were adjusted so that the final concentrations were 1, 5, 10, 20, 50, and 100 μM.

A further experiment relates to CHO-K1 cells. As to the kind of experiment: Mouse Aβ production inhibition experiment, CHO-K1 cells. The experiment is classed as cell-based. To be noted: polypeptide 20 μM, CHO-K1 cells expressing mouse-type APP, anti-mouse Aβ antibody Western blotting. The procedure: #1, #2, and #4 polypeptides were added to the culture solutions of CHO-K1 cells and Neuro 2A cells (N2A) in such a manner that the final concentration was 20 μM. As a control, L685458 (i.e., a γ-secretase inhibitor) and DMSO were added thereto in such a manner that the final concentration was 20 μM.
Thereafter, Aβ contained in the cell culture medium was identified by using a Western-blotting method with an antibody (anti-mouse Aβ antibody) that recognizes Aβ. […] In the figure, L indicates L685458, which is a γ-secretase inhibitor (final concentration of 1 μM).

For experiment [5], the target named is T1, APP in 7WD10 cells overexpressing APP (Homo sapiens, UniProt P05067).
T1 construct: expressed in transfected cells; host or cells: 7WD10
As to the kind of experiment: Analysis of subcellular distribution in 7WD10 cells. The experiment is classed as cell-based. To be noted: Biotin-modified #4 polypeptide. The procedure: Biotin-modified #4 polypeptide was prepared using a known method. This polypeptide was allowed to react with CHO-K1 cells and the 7WD10 cells mentioned above, and the resulting cells were immobilized, and then treated with Triton X-100. Thereafter, avidin-modified Alexa488 was reacted with the above. As the negative control experiment, an experiment was conducted reacting avidin-modified Alexa 488 in place of Biotin-modified #4 polypeptide.

Regarding `CC[C@H](C)[C@H](NC(=O)[C@H](CC(=O)O)NC(=O)[C@@H](NC(=O)[C@@H](NC(=O)[C@H](CS)NC(=O)[C@H](Cc1ccc(O)cc1)NC(=O)[C@H](CS)NC(=O)[C@H](CC(=O)O)NC(=O)[C@H](CS)NC(=O)[C@@H](NC(=O)[C@@H](NC(=O)[C@H](CC(C)C)NC(=O)[C@H](Cc1c[nH]cn1)NC(=O)[C@H](CCSC)NC(C)=O)C(C)C)[C@@H](C)CC)[C@@H](C)O)[C@@H](C)O)C(=O)N[C@@H](CS)C(=O)N[C@@H](Cc1ccc(O)cc1)C(=O)N[C@@H](CS)C(=O)N[C@@H](Cc1ccc(O)cc1)C(=O)N[C@@H](CO)C(=O)N[C@@H](CS)C(=O)N[C@H](C(=O)N1CCC[C@H]1C(=O)N[C@@H](CC(N)=O)C(N)=O)[C@@H](C)O` [#4] (Ac-MHLVICDCYCTTDICYCYSCTPN-NH2), in experiment [1], the “Aβ protein in the cell culture medium (released Aβ)” value is “decreased depending on the concentration”, the “Aβ protein in the cell lysate (intracellular Aβ)” value is on record as “no longer present in a manner dependent on the final concentration”, the “sAPP in the cell lysate” value is given as “no longer present in a manner dependent on the final concentration” and the “βCTF (C99) in the cell lysate” value is reported as “no longer present in a manner dependent on the final concentration”. Also, the “Aβ protein production in hippocampus (sandwich ELISA)” value in experiment [2] was “remarkably inhibited Aβ protein production”. The “cleavage activity of γ-secretase against βCTF (Aβ40 from C99-FLAG)” value in experiment [3] was “inhibited more cleavage activity of γ-secretase against βCTF”. In experiment [4] (polypeptide 50 μM, 4 hours, 37° C., Western blotting), the “cleavage activity of β-secretase against APP (Aβ33-FLAG)” value was “inhibit the cleavage activity of β-secretase against APP more intensely”. Also, in experiment [4] (polypeptide 1, 5, 10, 20, 50, and 100 μM), the “cleavage activity of β-secretase against APP” value is reported as “inhibited the cleavage activity of β-secretase against APP in a concentration-dependent manner”. Besides, the “production of Aβ in the culture medium” value in the experiment on CHO-K1 cells was “the production of Aβ in the culture medium was reduced”. Also, in experiment [5] (CHO-K1 and 7WD10 cells), the entry into cells entry is recorded as “entering the cells”. Also, the “binding to intracellular APP” value in experiment [5] (avidin-modified Alexa488, 7WD10 cells overexpressing APP) is on record as “remarkably binded also to the intracellular APP”.

Source of the values: patent US9045525B2, “Amyloid β-protein-specific production-inhibiting polypeptide” (THE DOSHISHA, priority 2012, dated 2015).
